Data on one compound can be found in US12589099B2 (priority 2021, dated 2026).

Holding throughout (assay type): in vivo, male Wistar rats
One experiment deals with total Tau. Kind of experiment: Total Tau immunostaining 35 days post-TBI. The settings on record: 4.5 mg/kg IN twice daily, cortex, DG, CA3, CA1 of ipsilateral hemisphere. From the text:
(§1) Young adult (2-3 months) male Wistar rats were subjected to a moderate traumatic brain injury (TBI) induced by controlled cortical impact (CCI). Animal models of TBI including the CCI model and functional tests have been described in detail in peer reviewed publications (Xiong et al., 2013, Nat Rev Neurosci.; Zhang et al., 2016, J Neurosurg.; Zhang et al., 2016, Neurochem Int.; Zhang et al., 2021, J Neurotrauma). Injury consisted of a single impact at 4.0 m/sec, 2.5 mm deformation to the left parietal cortex. In addition, a group of animals was left healthy/not injured to serve as a healthy control.
The substance used in this study was ALPHA-1062 at 4.5 mg/kg. […]
Histological assessment was performed including quantitative image analysis protocols; followed by statistical analysis of the data. […]
For cell counting and quantitation NeuN+ cells were examined in the ipsilateral cortex, DG, CA1, and CA3 regions of the ipsilateral hippocampus. […] The number of BrdU+ cells (red-fluorophore) and NeuN (green-fluorophore)/BrdU-colabeled cells (yellow after merge) were counted. […] The immune-positive cells were determined and divided by the measured areas and presented as numbers per square mm. […] Tau or p-Tau immunoreactive areas including cortex, dentate gyrus, CA3 and CA1 regions of the ipsilateral hemisphere were imaged and quantified by Image J software (NIH).

Experiment [1] relates to moderate traumatic brain injury (TBI) induced by controlled cortical impact (CCI). The experiment can be described thus: Lesion volume and hippocampal structure (H&E) 35 days post-TBI. The note with it: 4.5 mg/kg IN twice daily, 35 days after TBI.
Source text: as §1
(§2) The substance used in this study was ALPHA-1062 at 4.5 mg/kg. As control treatment (vehicle) purified water was administered intranasally (IN). The ALPHA-1062 and the control treatment were initiated 2 hours after injury and continued twice daily (with a 6-hour interval) for 35 consecutive days.
Histological assessment was performed including quantitative image analysis protocols; followed by statistical analysis of the data. Histology: All rats were sacrificed after the last Morris water maze (MWM) test 35 days after TBI for the following histological analyses: lesion volume (H&E), neuronal cell loss in injured cortex and hippocampus (NeuN), doublecortin (DCX, neuroblasts), NeuN/BrdU (newborn neurons), pathological p-Tau (AT8) and total Tau IHC. […]

Experiment [2] has the same test system. The experiment can be described thus: Foot-fault test (right forelimb and hindlimb) after TBI. The protocol: FIG. 2: The figure illustrates functional tests that are carried out on healthy (sham surgery) no treatment, vehicle treated and ALPHA-1062 treated rats to assess sensorimotor and cognitive function after TBI. Sensimotor function tests. a) The figure depicts tests to assess the modified neurological severity score (mNSS). […] The animal is required to balance over a grid and the frequency of steps missing the grid are counted. This test assesses the functionality of the injured parietal cortex of the rat's brain. c) The adhesive removal test consists of applying adhesive tape on each forepaw of the animal and measuring the time-to-contact and the time-to-remove them. This behavior requires correct paw and mouth sensitivity (time-to-contact) and correct dexterity (time-to-remove). Cognitive function tests: a) This picture illustrates the Morris water maze that comprises that a rat is placed in a large circular pool (picture on the left) and is required to find an invisible platform that allows it to escape the water by using various visuo-spatial cues. This test is used to study spatial learning and memory and assesses hippocampal and select cortical brain region function. Usually, the path of the rat through the pool is tracked (picture on the right) and the time spend in the proximity of the platform as well as the time needed until the platform is found by the rat are measured. b) For the new/novel object recognition (NOR) test, after a habituation time in the test space (picture on far left) rats are given the opportunity to explore two identical objects (A) for a predetermined period of time (picture in the middle). After a delay, the animals are then presented with two objects to explore, one of which is the same as in the first exploration trial (A), the other a new object (B) (picture on the right). Depending on the length of the delay between the two trials or depending on the extend of cortical damage, the rats will either explore the novel object for a greater time period, indicating memory for the familiar object, or will explore the novel and familiar objects for the same amount of time, indicating a lack of recall or loss of memory for the familiar object presented during the initial trial.
as §1
The animals were divided into 3 groups: • 1) TBI+Vehicle (purified water, n=10) • 2) TBI+ALPHA-1062 (4.5 mg/kg) (n=10) • 3) Healthy/not injured and not treated (Sham surgery) (n=10)
as §2
In addition, neurological functional tests were performed by conducting footfault tests and observations to determine the modified neurological severity score (mNSS) at 1, 7, 14, 21, 28, 35 days after TBI (see Table 1). The mNSS is a composite score assessing motor, sensory, balance, and reflex functions. Details of the tests and scoring system can be found in Table 2.
Animals were monitored as they walked across a mesh for the number of times their right forelimb “missed” proper placement, indicating reduced locomotor skill. This is indicative of trauma in the left side of the brain. The results are depicted in FIG. 3. […]

As to `COc1ccc2c3c1O[C@H]1C[C@@H](OC(=O)c4ccccc4)C=C[C@@]31CCN(C)C2` [ALPHA-1062, (4aS,6R,8aS)-5,6,9,10,11,12-hexahydro-3-methoxy-11-methyl-4aH-[1]benzofuro[3a,3,2-ef][2]benzazepin-6-ol benzoate], the “total Tau protein” value in the experiment with total Tau is “does not alter total Tau protein”. The “hippocampal structure on the injured side of the brain” value in experiment [1] was “preservation of hippocampal structure”. In experiment [1] (vs vehicle), the lesion volume entry is given as “significant (p<0.05) reduction of lesion volume”. Further, the “foot-fault performance compared to uninjured (sham) animals” value in experiment [2] (4.5 mg/kg IN twice daily, by day 28 (D28)) is recorded as “statistically indistinguishable”. Besides, the “locomotor skill in fore- and hindlimb foot-fault test, acute” value in experiment [2] (4.5 mg/kg IN twice daily, from the first day of treatment, vs vehicle) is given as “statistically significant preservation of locomotor skill”. The “recovery of locomotor skill in fore- and hindlimb foot-fault test” value in experiment [2] (4.5 mg/kg IN twice daily, throughout the study, vs vehicle) is “persistently statistically significantly improved recovery”. Further, in experiment [2] (4.5 mg/kg IN, 2 h post injury, twice daily, 35 days, vs vehicle after TBI (FIG. 3)), the “right forelimb foot faults during the walk over a mesh” value is reported as “significantly fewer foot faults”. Further, in experiment [2] (4.5 mg/kg IN, 2 h post injury, twice daily, 35 days, vs vehicle after TBI (FIG. 4)), the “right hindlimb foot faults during the walk over a mesh” value is reported as “significantly fewer foot faults”. Besides, in experiment [2] (rats after TBI, compared to healthy sham animals), the “Footfault, performance over SHAM” value is on record as “equivalent to”. In addition, in experiment [2] (rats after TBI, compared to vehicle treatment), the “Footfault, performance over VEHICLE” value is reported as “superior”.
